Literature values in patent US20090062391A1, “Use of a virucidal ointment in the nares for prevention of transmission and contraction of common colds” (priority 2007, published 2009).

What was measured:
[1] = test system: viruses which cause colds; conditions: for effectiveness against viruses which cause colds: organic acid; for effectiveness at inactivating cold viruses: surfactant combined with organic acids
herpes simplex virus = conditions: Poli et al. [5]
adenovirus = conditions: Poli et al. [5]; only naked virus tested
rhabdovirus = conditions: Poli et al. [5]
rhinovirus [2] = conditions: Hendley et al. [4]
rhinovirus [3] = conditions: hand lotions containing 2% glutaric acid, versus placebo; Hayden et al. [6]
[4] = frequent application
common colds = conditions: in vivo

Compound: N[C@@H](CC(=O)O)C(=O)O [aspartic acid]
- effectiveness against viruses which cause colds [1]: effective

Compound: O=C(O)CC(O)(CC(=O)O)C(=O)O [citric acid]
- antiviral activity against herpes simplex virus (herpes simplex virus): effective
- effectiveness against viruses which cause colds [1]: effective
- antiviral activity against adenovirus (adenovirus): not effective
- antiviral activity against rhabdovirus (rhabdovirus): effective

Compound: CCO [ethyl alcohol]
- antiviral activity (rhinovirus [2]): performed poorly

Compound: O=C(O)CCCC(=O)O [glutaric acid]
- inactivating certain serotypes of rhinovirus (rhinovirus [3]): more effective than placebo

Compound: O=C(O)CO [glycolic acid]
- effectiveness against viruses which cause colds [1]: effective

Compound: II [iodine]
- irritation of the skin [4]: too irritating to the skin

Compound: CC(O)C(=O)O (centres unmarked) [lactic acid]
- effectiveness against viruses which cause colds [1]: effective

Compound: O=C(O)CC(O)C(=O)O (centres unmarked) [malic acid]
- antiviral activity against herpes simplex virus (herpes simplex virus): effective
- effectiveness against viruses which cause colds [1]: effective
- antiviral activity against adenovirus (adenovirus): not effective
- antiviral activity against rhabdovirus (rhabdovirus): effective

Compound: CCCCCCCCC(=O)O [pelargonic acid]
- effectiveness against viruses which cause colds [1]: effective

Compound: CC(=O)C(=O)O [pyruvic acid]
- antiviral activity against herpes simplex virus (herpes simplex virus): effective
- antiviral activity against adenovirus (adenovirus): not effective
- antiviral activity against rhabdovirus (rhabdovirus): effective

Compound: CCCCCCCCOC(=O)CC(C(=O)OCCCCCCCC)S(=O)(=O)O.[Na] (centres unmarked) [sodium dioctyl sulfosuccinate]
- effectiveness at inactivating cold viruses [1]: demonstrated effectiveness

Compound: CCCCCCCCCCCCOS(=O)(=O)[O-].[Na+] [sodium dodecyl sulfate]
- effectiveness at inactivating cold viruses [1]: demonstrated effectiveness

Compound: O=C(O)CCC(=O)O [succinic acid]
- antiviral activity against herpes simplex virus (herpes simplex virus): effective
- antiviral activity against adenovirus (adenovirus): not effective
- antiviral activity against rhabdovirus (rhabdovirus): effective

Compound: CCCCC(=O)O [valeric acid]
- effectiveness against viruses which cause colds [1]: effective

Compound: [Zn] [zinc]
- duration of common colds (common colds): shorten the duration

Compound: benzalkonium chloride
- antiviral activity (rhinovirus [2]): performed poorly
